Results on 3 compounds are retold here after PMC12227648, “Chemoproteomics identifies protein ligands for monoacylglycerol lipids” (Communications Chemistry, 2025).

Assay [1] addresses T1, mouse HPCA (Hippocalcin) (Mus musculus, UniProt P84075).
T1 construct: full-length cDNA in pET45b(+), N-terminal 6x-His tag kept, E. coli BL21 (DE3), HisTrap purified; major ~20 kDa and minor ~25 kDa bands
Put plainly: effect on PG-DA photo-labelling, in-gel fluorescence. The settings on record: HPCA 10 uM, PG-DA 10 uM, 1-PG 0-250 uM, 37 C, 30 min; raises, not competes, probe binding (suggested cooperative).

For assay [2], the target named is T1, mouse HPCA (Hippocalcin). Put plainly: UV photocrosslinking, click rhodamine-azide, in-gel fluorescence. Particulars: probe 10 uM or 0-250 uM, HPCA 10 uM, 50 mM Tris pH 8.0, 37 C, 6 min UV 365 nm, covalent photo-crosslink. It is filed as binding.
The target in assay [3] is T2, HPCA (N-terminal FLAG tag) in HEK293T lysates (Mus musculus, UniProt P84075).
T2 construct: N-terminal FLAG tag, transiently overexpressed in HEK293T
Put plainly: UV photocrosslinking in lysate, click, in-gel fluorescence. Format: biochemical. The settings on record: probe 50 uM, 2 mg/mL HEK293T lysate; covalent photo-crosslink; mock control.

On to `CCCCCCCCCCCCCCCC(=O)OCC(O)CO` (stereo not shown) [1-PG], for which, on mouse HPCA (Hippocalcin) [1], the “effect on PG-DA photo-labelling, in-gel fluorescence” value was “increasing the 1-PG concentration resulted in the heightened binding of the PG-DA probe”.
For the compound `C#CCCCC1(CCCCCCCCCC(=O)O)N=N1` [PA-DA], the “UV photocrosslinking, click rhodamine-azide, in-gel fluorescence” value on mouse HPCA (Hippocalcin) [2] (weaker control probe) is listed as “PG-DA probe binds far more to HPCA than the PA-DA probe”.
`C#CCCCC1(CCCCCCCCCC(=O)OCC(O)CO)N=N1` (stereo not shown) [PG-DA]: the “UV photocrosslinking, click rhodamine-azide, in-gel fluorescence” value on mouse HPCA (Hippocalcin) [2] (Ca2+ surplus versus EDTA compared) was “PG-DA bound significantly more to mouse HPCA than the PA-DA probe”. Moreover, the “UV photocrosslinking in lysate, click, in-gel fluorescence” value in assay [3] was “PG-DA probe, but not PA-DA probe, was able to bind to HPCA in HEK293T lysates”.
